In patent US11242351B2, “Tricyclic inhibitors of the BCL6 BTB domain protein-protein interaction and uses thereof” (priority 2017, dated 2022):
Where two headings read alike, the source gives them in different places.

Columns and labels:
[1] = biological target: BCL6 BTB domain (biotin-thrombin-BCL6 amino acids 1-129) (Homo sapiens (Human), UniProt P41182); assay: Surface Plasmon Resonance (SPR) assay; type: binding; conditions: Biacore T200, single cycle kinetic analysis
Method: Surface Plasmon Resonance (SPR) Assay
SPR studies were performed using a Biacore™ T200 instrument (GE Health Sciences Inc.). […] The Biacore flow rate was set at 100 μl/min. […] Curve fitting and KD calculations were performed with the Biacore T200 Evaluation software (GE Health Sciences Inc).

Karpas422 cells = assay: Tumor cell growth inhibition assay; type: cell-based; conditions: Homo sapiens, KARPAS-422, 144 h, read-out: GI Karpas EC50
Procedure, shortened: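 Karpas422 cells were dosed over a 10-point concentration range (top 5 μM) and grown 6 days at 37 °C, 5% CO2, in Alpha-MEM with 10% FBS. Viability was read as ATPlite luminescence.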

[2] = system: BCL6 reporter construct in SuDHL4-3×BCL6-TK-Luc cells; assay: Cell-based luciferase assay (BCL6 reporter); conditions: 48 h, read-out: Luc IC50
Procedure, shortened: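 SuDHL4 cells stably carrying a 3×BCL6-site TK-promoter firefly luciferase reporter, 15,000 cells/well, dosed over 10 concentrations (top 10 μM) and cultured two days at 37° C, 5% CO2. Luciferase luminescence read after room-temperature equilibration with neolite reagent.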

[3] = Karpas422 cells, six days, ATPlite
[4] = SuDHL4-3×BCL6-TK-Luc cells, two days

Row | Compound | Kd [1] [nM] | EC50 (Karpas422 cells; [3]) [nM] | IC50 [2, 4] [nM] | EC50 (Karpas422 cells) [nM] | IC50 [2] [nM]
1 | C[C@H]1CN(C)CCN1c1cc(NC(=O)Cn2cc(-c3cc(C(N)=O)c(O)c4c3OCO4)c3c(=O)n4c(nc32)COCC4)c(Cl)c(F)n1 [I-94, (S)-7-(1-(2-((3-chloro-6-(2,4-dimethylpipera-zin-1-yl)-2-fluoro-pyridin-4-yl)amino)-2-oxoethyl)-4-oxo-4,6,7,9-tetrahydro-1H-pyrrolo[2′,3′:4,5]pyri-mido[2,1-c][1,4]oxazin-3-yl)-4-hydroxybenzo [d][1,3]dioxole-5-carboxamide] | 1.33 | 17.8 | 28.3 | – | –
2 | NC(=O)c1cc(-c2cn(CC(=O)Nc3cc(N4CCOCC4)c(F)cc3Cl)c3nc4n(c(=O)c23)CCC4)c(F)c(F)c1O [I-30, 5-(1-(2-((2-chloro-4-fluoro-5-morpholino-phenyl)amino)-2-oxo-ethyl)-4-oxo-4,6,7,8-tetrahydro-1H-dipyrrolo [1,2-a:2′,3′-d]pyrimidin-3-yl)-3,4-difluoro-2-hydroxybenzamide] | 106 | – | – | 980 | 1110
3 | CCN1CCN(c2cc(NC(=O)Cn3cc(-c4cc(C(N)=O)c(O)c(F)c4F)c4c(=O)n5c(nc43)CCCC5)c(Cl)c(F)n2)[C@@H](C)C1 [I-43, (S)-5-(1-(2-((3-chloro-6-(4-ethyl-2-methyl-piperazin-1-yl)-2-fluoropyridin-4-yl)amino)-2-oxoethyl)-4-oxo-1,4,6,7,8,9-hexahydropyrido [1,2-a]pyrrolo[2,3-d]pyrimidin-3-yl)-3,4-difluoro-2-hydroxy-benzamide] | 42.8 | 240 | 232 | – | –
4 | COCCN1CCN(c2cc(NC(=O)Cn3cc(-c4cc(C(N)=O)c(O)c(F)c4F)c4c(=O)n5c(nc43)CCC5)c(Cl)c(F)n2)[C@@H](C)C1 [I-25, (S)-5-(1-(2-((3-chloro-2-fluoro-6-(4-(2-methoxyethyl)-2-methyl-piperazin-1-yl)pyridin-4-yl)amino)-2-oxoethyl)-4-oxo-4,6,7,8-tetrahydro-1H-dipyrrolo[1,2-a:2′,3′-d]pyrimidin-3-yl)-3,4-difluoro-2-hydroxy-benzamide] | 5.64 | 75.1 | 78.7 | – | –
5 | C[C@H]1CN(C)CCN1c1cc(NC(=O)Cn2cc(-c3cc(F)c(O)c(C(N)=O)c3)c3c(=O)n4c(nc32)CC(C)(C)C4)c(Cl)c(F)n1 [I-79, (S)-5-(1-(2-((3-chloro-6-(2,4-dimethyl-piperazin-1-yl)-2-fluoropyridin-4-yl)amino)-2-oxoethyl)-7,7-dimethyl-4-oxo-4,6,7,8-tetrahydro-1H-dipyrrolo[1,2-a:2′,3′-d]pyrimidin-3-yl)-3-fluoro-2-hydroxy-benzamide] | 2.79 | 39.8 | 35.2 | – | –
6 | NC(=O)c1cc(-c2cn(CC(=O)Nc3cc(N4CCCC4)nc(F)c3Cl)c3nc4n(c(=O)c23)CCC4)c(F)c(F)c1O [I-47, 5-(1-(2-((3-chloro-2-fluoro-6-(pyrrolidin-1-yl)pyridin-4-yl)amino)-2-oxoethyl)-4-oxo-4,6,7,8-tetrahydro-1H-dipyrrolo[1,2-a:2′,3′-d]pyrimidin-3-yl)-3,4-difluoro-2-hydroxy-benzamide] | 23.9 | 212 | 166 | – | –
7 | COc1c(-c2cn(CC(=O)Nc3cc(N4CCN(C5COC5)C[C@@H]4C)nc(F)c3Cl)c3nc4n(c(=O)c23)CCC4)cc(C(N)=O)c(O)c1OC [I-72, (S)-5-(1-(2-((3-chloro-2-fluoro-6-(2-methyl-4-(oxetan-3-yl)pipera-zin-1-yl)pyridin-4-yl)amino)-2-oxoethyl)-4-oxo-4,6,7,8-tetra-hydro-1H-dipyrrolo [1,2-a:2′,3′-d]pyrimi-din-3-yl)-2-hydroxy-3,4-dimethoxy-benzamide] | 85.1 | – | – | 429 | 1560
